# From US20260327225A1, “HETEROCYCLIC COMPOUNDS AS TRIGGERING RECEPTOR EXPRESSED ON MYELOID CELLS 2 AGONISTS AND METHODS OF USE” (VIGIL NEUROSCIENCE, INC., priority 2023, published 2026)
# Molecular target: T1, human TREM2 (Homo sapiens, UniProt Q9NZC2)
# T1 construct: expressed in transfected cells; host or cells: HEK293T-hTREM2 cells (HEK cell line expressing human TREM2 and DAP12)
# Test: TREM2 agonist potency by cellular phosphorylation of Syk (AlphaLisa) in HEK293T-hTREM2 cells expressing human TREM2 and DAP12
# Type: cell-based
# Conditions: HEK293 cells expressing hTREM2 and DAP12; 45 minutes at room temperature; Syk phosphorylation, AlphaLisa; read-out: hTREM2 EC50
# Method in brief: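 HEK293T cells co-expressing human TREM2 and DAP12 were exposed to compound in assay buffer for 45 min at room temperature, then lysed. Phospho-Syk measured by AlphaLisa; % activation fitted with a four-parameter agonist curve to give EC50.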
# T1 sequence (Q9NZC2 19-230): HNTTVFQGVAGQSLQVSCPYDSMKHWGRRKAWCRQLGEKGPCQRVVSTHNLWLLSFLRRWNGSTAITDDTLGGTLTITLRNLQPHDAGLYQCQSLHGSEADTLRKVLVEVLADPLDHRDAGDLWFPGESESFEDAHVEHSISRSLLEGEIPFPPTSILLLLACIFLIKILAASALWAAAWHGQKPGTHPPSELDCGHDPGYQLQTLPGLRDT
# T1 sequence (O43914 22-113 partner): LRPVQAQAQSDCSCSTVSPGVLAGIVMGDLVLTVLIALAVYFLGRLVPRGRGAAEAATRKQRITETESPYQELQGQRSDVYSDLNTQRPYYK
row,EC50 [nM],Compound
1,< 100,"Cc1nc2nc(C3CCOC(c4ccc5nn(C)cc5c4)C3)nc(-c3ccc(F)cc3F)c2nc1C (stereo not shown) [Example 114, 4-(2,4-difluorophenyl)-6,7-dimethyl-2-[2-(2-methylindazol-5-yl)tetrahydropyran-4-yl]pteridine]"
2,< 100,"Cc1nc2ccc(C3CC(c4nc(-c5ccc(F)cc5F)c5nc(C)c(C)nc5n4)CCO3)cc2s1 (stereo not shown) [Example 115, 6-[4-[4-(2,4-difluorophenyl)-6,7-dimethyl-pteridin-2-yl]tetrahydropyran-2-yl]-2-methyl-1,3-benzothiazole]"
3,< 100,"Cc1cc2cc(C3CC(c4nc(-c5ccc(F)cc5F)c5nc(C)c(C)nc5n4)CCO3)ccn2n1 (stereo not shown) [Example 116, 4-(2,4-difluorophenyl)-6,7-dimethyl-2-[2-(2-methylpyrazolo-[1,5-a]pyridin-5-yl)tetrahydropyran-4-yl]pteridine]"
4,100 to 500,"Cc1nc2nc([C@H]3CCO[C@@H](c4cnn(C5CC5)c4)C3)nc(C34CC(C#N)(C3)C4)c2nc1C [Example 119, 3-(2-((2R,4S)-2-(1-cyclopropyl-1H-pyrazol-4-yl)tetrahydro-2H-pyran-4-yl)-6,7-dimethylpteridin-4-yl)bicyclo[1.1.1]pentane-1-carbonitrile]"
5,100 to 500,"Cc1nc2nc(N3C[C@@H](C)O[C@@H](c4cnn(C5CC5)c4)C3)nc(C34C5C6C7C5C3C7C64)c2nc1C (stereo partly drawn) [Example 121, (2S,6R)-4-(4-cuban-1-yl-6,7-dimethyl-pteridin-2-yl)-2-(1-cyclopropylpyrazol-4-yl)-6-methyl-morpholine]"
6,> 500,"Cc1nc2nc(C3CCOC(c4cnn5c4CCCC5)C3)nc(C34CC(C(F)(F)F)(C3)C4)c2nc1C (stereo not shown) [Example 123, 6,7-dimethyl-2-[2-(4,5,6,7-tetrahydropyrazolo[1,5-a]pyridin-3-yl)tetrahydropyran-4-yl]-4-[3-(trifluoromethyl)-1-bicyclo[1.1.1]pentanyl]pteridine]"
7,< 100,"Cc1nc2c(C34CC(C(F)(F)F)(C3)C4)nc(N3C[C@@H](C)O[C@@H](c4cnn(C5CC5)c4)C3)nc2c(=O)n1C [Example 127, 6-[(2S,6R)-2-(1-cyclopropylpyrazol-4-yl)-6-methyl-morpholin-4-yl]-2,3-dimethyl-8-[3-(trifluoromethyl)-1-bicyclo[1.1.1]pentanyl]pyrimido[5,4-d]pyrimidin-4-one]"
8,< 100,"Cc1cc2c(-c3ccc(C(F)(F)F)cc3F)nc([C@H]3CCO[C@@H](c4cnn(C5CC5)c4)C3)nc2c(=O)n1C [Example 136, 2-[(2R,4S)-2-(1-cyclopropylpyrazol-4-yl)tetrahydropyran-4-yl]-4-[2-fluoro-4-(trifluoromethyl)phenyl]-6,7-dimethyl-pyrido[3,4-d]pyrimidin-8-one]"
9,> 500,"CC1Cc2c(nc([C@H]3CCO[C@@H](c4cnn(C5CC5)c4)C3)nc2-c2ccc(C(F)(F)F)cc2F)C(=O)N1C (stereo partly drawn) [Example 138, 2-[(2R,4S)-2-(1-cyclopropylpyrazol-4-yl)tetrahydropyran-4-yl]-4-[2-fluoro-4-(trifluoromethyl)phenyl]-6,7-dimethyl-5,6-dihydropyrido[3,4-d]pyrimidin-8-one formic acid]"
10,< 100,"Cc1nc2nc([C@H]3CCO[C@@H](c4cnn(C5CC5)c4)C3)nc(C34C5C6C7C5C3C7C64)c2nc1C (stereo partly drawn) [Example 140, 2-((2R,4S)-2-(1-cyclopropyl-1H-pyrazol-4-yl)tetrahydro-2H-pyran-4-yl)-6,7-dimethyl-4-(cuban-1-yl)pteridine]"
11,< 100,"Cc1nc2nc([C@H]3CCO[C@@H](c4cnn(C5CC5)c4)C3)nc(C34C5C6C3C3C4C5C63C(F)(F)F)c2nc1C (stereo partly drawn) [Example 143, 2-((2R,4S)-2-(1-cyclopropyl-1H-pyrazol-4-yl)tetrahydro-2H-pyran-4-yl)-6,7-dimethyl-4-(4-(trifluoromethyl)-cuban-1-yl)pteridine]"

# Second part, the compound before the results:
row,Compound,EC50 [nM]
1,"Cc1nc2nc(C3CCOC(c4ccc5nccn5c4)C3)nc(-c3ccc(F)cc3F)c2nc1C (stereo not shown) [Example 94, 4-(2,4-difluorophenyl)-2-(2-imidazo[1,2-a]pyridin-6-yltetrahydropyran-4-yl)-6,7-dimethyl-pteridine]",< 100
2,Cc1nc2nc(C3CCOC(c4ccc5ncnn5c4)C3)nc(-c3ccc(F)cc3F)c2nc1C (stereo not shown) [Example 95],< 100
3,"Cc1nc2nc(N3C[C@@H](C)O[C@@H](c4cnn(C5CC5)c4)C3)nc(-c3ccncc3F)c2nc1C [Example 96, (2S,6R)-2-(1-cyclopropylpyrazol-4-yl)-4-[4-(3-fluoro-4-pyridyl)-6,7-dimethylpteridin-2-yl]-6-methyl-morpholine]",100 to 500
4,"Cc1nc2nc(C3CCOC(c4ccc5ncn(C)c5c4)C3)nc(-c3ccc(F)cc3F)c2nc1C (stereo not shown) [Example 98, 4-(2,4-difluorophenyl)-6,7-dimethyl-2-[2-(3-methylbenzimidazol-5-yl)tetrahydropyran-4-yl]pteridine]",< 100
5,"Cc1nc2nc(C3CCOC(c4ccc5nnc(C)n5c4)C3)nc(-c3ccc(F)cc3F)c2nc1C (stereo not shown) [Example 99, 4-(2,4-difluorophenyl)-6,7-dimethyl-2-[2-(3-methyl[1,2,4]-triazolo[4,3-a]pyridin-6-yl)tetrahydropyran-4-yl]pteridine]",< 100
6,"Cc1nc2nc(N3C[C@@H](C)O[C@@H](c4cnn(C5CC5)c4)C3)nc(C34CC(C3)C4)c2nc1C [Example 100, (2S,6R)-4-[4-(1-bicyclo[1.1.1]pentanyl)-6,7-dimethyl-pteridin-2-yl]-2-(1-cyclopropylpyrazol-4-yl)-6-methyl-morpholine]",< 100
7,"Cc1nc2nc(N3C[C@@H](C)O[C@@H](c4cnn(C5CC5)c4)C3)nc(C34CC(C#N)(C3)C4)c2nc1C [Example 102, 3-[2-[(2S,6R)-2-(1-cyclopropylpyrazol-4-yl)-6-methyl-morpholin-4-yl]-6,7-dimethyl-pteridin-4-yl]bicyclo[1.1.1]pentane-1-carbonitrile]",< 100
8,"Cc1nc2nc(N3C[C@@H](C)O[C@@H](c4cnn(C5CC5)c4)C3)nc(-c3ccc(=O)n(C)c3)c2nc1C [Example 104, 5-[2-[(2S,6R)-2-(1-cyclopropylpyrazol-4-yl)-6-methyl-morpholin-4-yl]-6,7-dimethyl-pteridin-4-yl]-1-methyl-pyridin-2-one]",> 500
9,"Cc1nc2nc([C@@H]3CCO[C@H](c4cn(C)c(=O)s4)C3)nc(C34CC(C(F)(F)F)(C3)C4)c2nc1C [Example 107, 5-[(2S,4R)-4-[6,7-dimethyl-4-[3-(trifluoromethyl)-1-bicyclo[1.1.1]pentanyl]pteridin-2-yl]tetrahydropyran-2-yl]-3-methyl-thiazol-2-one]",< 100
10,"Cc1nc2nc([C@H]3CCO[C@@H](c4cn(C)c(=O)s4)C3)nc(C34CC(C(F)(F)F)(C3)C4)c2nc1C [Example 108, 5-[(2R,4S)-4-[6,7-dimethyl-4-[3-(trifluoromethyl)-1-bicyclo[1.1.1]pentanyl]pteridin-2-yl]tetrahydropyran-2-yl]-3-methyl-thiazol-2-one]",< 100
11,"Cc1nc2nc(C3CCOC(c4ccn5nccc5c4)C3)nc(C34CC(C(F)(F)F)(C3)C4)c2nc1C (stereo not shown) [Example 109, 6,7-dimethyl-2-(2-pyrazolo[1,5-a]pyridin-5-yltetrahydropyran-4-yl)-4-[3-(trifluoromethyl)-1-bicyclo[1.1.1]pentanyl]pteridine]",< 100
12,"Cc1nc2nc(C3CCOC(C4CCn5nccc5C4)C3)nc(C34CC(C(F)(F)F)(C3)C4)c2nc1C (stereo not shown) [Example 110, 6,7-dimethyl-2-[2-(4,5,6,7-tetrahydropyrazolo[1,5-a]pyridin-5-yl)tetrahydropyran-4-yl]-4-[3-(trifluoromethyl)-1-bicyclo[1.1.1]pentanyl]pteridine]",< 100
13,"Cc1nc2nc(N3C[C@@H](C)O[C@@H](c4ccn5nccc5c4)C3)nc(C34CC(C(F)(F)F)(C3)C4)c2nc1C [Example 111, (2R,6S)-4-[6,7-dimethyl-4-[3-(trifluoromethyl)-1-bicyclo[1.1.1]pentanyl]pteridin-2-yl]-2-methyl-6-pyrazolo[1,5-a]pyridin-5-yl-morpholine]",< 100
14,"Cc1nc2ccc(C3CC(c4nc(-c5ccc(F)cc5F)c5nc(C)c(C)nc5n4)CCO3)cc2o1 (stereo not shown) [Example 113, 6-[4-[4-(2,4-difluorophenyl)-6,7-dimethyl-pteridin-2-yl]tetrahydropyran-2-yl]-2-methyl-1,3-benzoxazole]",< 100
